Key:
[1] = target: TYK2 JH2 (Homo sapiens (Human), UniProt P29597); assay: Competitive binding assay (kinase-tagged phage, qPCR), TYK2 JH2
Experimental: For most assays, kinase-tagged T7 phage strains were prepared in an E. coli host derived from the BL21 strain. E. coli were grown to log-phase and infected with T7 phage and incubated with shaking at 32° C. until lysis. The lysates were centrifuged and filtered to remove cell debris. The remaining kinases were produced in HEK-293 cells and subsequently tagged with DNA for qPCR detection. Streptavidin coated magnetic beads were treated with biotinylated small molecule ligands for 30 minutes at room temperature to generate affinity resins for kinase assays. The liganded beads were blocked with excess biotin and washed with blocking buffer (SeaBlock (Pierce), 1% BSA, 0.05% Tween 20, 1 mM DTT) to remove unbound ligand and to reduce non-specific binding. […] Test compounds were prepared as 111X stocks in 100% DMSO. Dissociation constants (Kds) were determined using an 11-point 3-fold compound dilution series with three DMSO control points. All compounds for Kd measurements are distributed by acoustic transfer (non-contact dispensing) in 100% DMSO. The compounds were then diluted directly into the assays such that the final concentration of DMSO was 0.9%. All reactions performed in polypropylene 384-well plate. Each was a final volume of 0.02 ml. The assay plates were incubated at room temperature with shaking for 1 hour and the affinity beads were washed with wash buffer (1×PBS, 0.05% Tween 20). The beads were then re-suspended in elution buffer (1×PBS, 0.05% Tween 20, 0.5 μM nonbiotinylated affinity ligand) and incubated at room temperature with shaking for 30 minutes. The kinase concentration in the eluates was measured by qPCR.
An 11-point 3-fold serial dilution of each test compound was prepared in 100% DMSO at 100× final test concentration and subsequently diluted to 1× in the assay (final DMSO concentration=1%). Most Kds were determined using a compound top concentration=30,000 nM. If the initial Kd determined was <0.5 nM (the lowest concentration tested), the measurement was repeated with a serial dilution starting at a lower top concentration.
Binding constants (Kds) were calculated with a standard dose-response curve using the Hill equation: […]
The Hill Slope was set to −1.
Curves were fitted using a non-linear least square fit with the Levenberg-Marquardt algorithm.

[2] = Pharmacokinetic evaluation in mice; type: in vivo; settings: for plasma exposure and bioavailability in mice (in words): conclusion from Table 9; for AUC / Vd / clearance / half-life / Cmax / Tmax: male, mouse, plasma; for AUC / Vd / clearance / half-life / Cmax / Tmax / F: mice
Experimental: (§1) The mice pharmacokinetic characteristics of compounds were tested by standard protocols. The candidate compounds were made into clear solution for single intravenous injection (i.v.) and suspension for oral administration (p.o.). Intravenous vehicle is 5% DMSO+10% Solutol+85% Saline. Of which adjusts pH to 3 for B37. While oral vehicle is 0.5% CMCNa for B2 and B22, 5% DMSO+10% Solutol+85% Saline, PH˜3 for B37, 5% DMSO+10% Solutol+85% Saline for B41. The experiment used 6 male mice and 3 mice for intravenous at a dose of 2 mg/kg. Plasma samples were collected at 0 h (before dosing) and 0.083 h, 0.25 h, 0.5 h, 1 h, 2 h, 4 h, 8 h, 24 h after dosing. Another 3 mice were orally administrated with a dose of 10 mg/kg. Plasma samples were collected at 0 h (before dosing) and 0.25 h, 0.5 h, 1 h, 2 h, 4 h, 6 h, 8 h, 24 h after dosing.
(§2) Blood samples were placed in tubes containing K2-EDTA and stored on ice until centrifuged. The blood samples were centrifuged at 6800 g for 6 minutes at 2-8° C. within 1 h after collected, and stored frozen at approximately −80° C.
(§3) The analytical results were confirmed using quality control samples for intra-assay variation. The accuracy of >66.7% of the quality control samples and 50% of all QC samples at each concentration level were between 80-120% of the known value(s).
(§4) Standard set of parameters including area under the curve (AUC(0-t) and AUC(0-∞)), elimination half-live (T1/2), maximum plasma concentration (Cmax), time to reach maximum plasma concentration (Tmax) were calculated using noncompartmental analysis modules in FDA certified pharmacokinetic program Phoenix WinNonlin 7.0 (Pharsight, USA) by the Study Director.

[3] = Pharmacokinetic evaluation in rats; type: in vivo, rat; settings: for plasma exposure and bioavailability in rat (in words): conclusion from Table 10; for AUC / Vd / clearance / half-life / Cmax / Tmax: male, plasma; for AUC / Vd / clearance / half-life / Cmax / Tmax / F: rat
Experimental: as §1, with “The rat” for “The mice”, “Saline, pH˜3” for “Saline, PH˜3”, “male rats” for “male mice”, “3 rats” for “3 mice”, “dosing.” for “dosing. Another”, “administrated at” for “administrated with”
as §2, §3, §4

Sequence of TYK2 JH2 (P29597 589-875): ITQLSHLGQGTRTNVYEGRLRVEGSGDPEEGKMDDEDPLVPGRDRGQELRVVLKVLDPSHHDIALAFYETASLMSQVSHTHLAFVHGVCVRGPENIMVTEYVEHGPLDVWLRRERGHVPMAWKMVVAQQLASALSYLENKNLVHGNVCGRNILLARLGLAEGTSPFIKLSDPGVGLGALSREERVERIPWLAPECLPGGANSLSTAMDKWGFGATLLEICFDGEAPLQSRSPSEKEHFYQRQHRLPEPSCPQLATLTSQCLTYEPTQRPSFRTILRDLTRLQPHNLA

SMILES	Kd [1] [nM]	plasma exposure and bioavailability in mice (in words) [2]	AUC ([2]; iv, i.v. 2 mg/kg) [ng·h/mL]	Vd ([2]; iv, i.v. 2 mg/kg) [L/kg]	clearance ([2]; iv, i.v. 2 mg/kg) [mL/min/kg]	half-life ([2]; iv, i.v. 2 mg/kg) [h]	AUC ([2]; po, p.o. 10 mg/kg) [ng·h/mL]	Cmax ([2]; po, p.o. 10 mg/kg) [ng/mL]	Tmax ([2]; po, p.o. 10 mg/kg) [h]	F ([2]; p.o. 10 mg/kg) [%]	plasma exposure and bioavailability in rat (in words) [3]	AUC ([3]; iv, i.v. 2 mg/kg) [ng·h/mL]	Vd ([3]; iv, i.v. 2 mg/kg) [L/kg]	clearance ([3]; iv, i.v. 2 mg/kg) [mL/min/kg]	half-life ([3]; iv, i.v. 2 mg/kg) [h]	AUC ([3]; po, p.o. 10 mg/kg) [ng·h/mL]	Cmax ([3]; po, p.o. 10 mg/kg) [ng/mL]	Tmax ([3]; po, p.o. 10 mg/kg) [h]	F ([3]; p.o. 10 mg/kg) [%]
CCC(=O)c1cnc(NC(=O)C2CC2)cc1Nc1cccc(-c2cc(P(C)(C)=O)n(C)n2)c1OC [Compound B2, N-(4-((3-(5-(dimethylphosphoryl)-1-methyl-1H-pyrazol-3-yl)-2-methoxyphenyl)amino)-5-propionylpyridin-2-yl)cyclopropanecarboxamide]	0.043	good plasma exposure and bioavailability	1940	1.5	17.2	1	4140	1180	3	43	good plasma exposure and bioavailability	2430	1.5	13.8	1.3	5900	2020	0.67	49
[2H]C([2H])([2H])n1nc(-c2cccc(Nc3cc(NC(=O)C4CC4)ncc3C(=O)CC)c2OC)cc1P(C)(C)=O [Compound B22]	0.063	good plasma exposure and bioavailability	1350	3.1	25.4	1.4	6370	2630	0.33	94	–	2670	1.4	12.7	1.3	2280	694	1.83	17
CCC(=O)c1cnc(NC(=O)C2CC2)cc1Nc1cccc(-c2cc(P(=O)(C3CC3)C3CC3)n(C)n2)c1OC [Compound B37, N-(4-((3-(5-(dicyclopropylphosphoryl)-1-methyl-1H-pyrazol-3-yl)-2-methoxyphenyl)amino)-5-propionylpyridin-2-yl)cyclopropanecarboxamide]	0.044	good plasma exposure and bioavailability	2160	0.84	15.5	0.63	8420	4250	0.42	78	good plasma exposure and bioavailability	3090	0.9	10.9	0.96	9420	1890	2.05	61
[2H]C([2H])([2H])NC(=O)c1nnc(NC(=O)C2CC2)cc1Nc1cccc(-c2cc(P(=O)(C3CC3)C3CC3)n(C)n2)c1OC [Compound B41, 6-(cyclopropanecarboxamido)-4-((3-(5-(dicyclopropylphosphoryl)-1-methyl-1H-pyrazol-3-yl)-2-methoxyphenyl)amino)-N-(methyl-d3)pyridazine-3-carboxamide]	–	good plasma exposure and bioavailability	2670	1.2	12.7	1.1	11900	6560	0.5	89	good plasma exposure and bioavailability	2880	1	11.6	1	6900	1800	2.83	48

— patent US20240343747A1, “Heteroaryl compounds as inhibitors of TYK2, composition and application thereof” (Accro Bioscience (HK) Limited, priority 2021, published 2024)
